Assay results from ChEMBL document CHEMBL5725366, “Oxindole compounds carrying a nitrogen-bound spiro substituent and use thereof for treating vasopressin-related diseases” (2017).

Target: T1, Vasopressin V1b receptor (Homo sapiens, UniProt P47901)
T1 sequence (P47901 whole entry): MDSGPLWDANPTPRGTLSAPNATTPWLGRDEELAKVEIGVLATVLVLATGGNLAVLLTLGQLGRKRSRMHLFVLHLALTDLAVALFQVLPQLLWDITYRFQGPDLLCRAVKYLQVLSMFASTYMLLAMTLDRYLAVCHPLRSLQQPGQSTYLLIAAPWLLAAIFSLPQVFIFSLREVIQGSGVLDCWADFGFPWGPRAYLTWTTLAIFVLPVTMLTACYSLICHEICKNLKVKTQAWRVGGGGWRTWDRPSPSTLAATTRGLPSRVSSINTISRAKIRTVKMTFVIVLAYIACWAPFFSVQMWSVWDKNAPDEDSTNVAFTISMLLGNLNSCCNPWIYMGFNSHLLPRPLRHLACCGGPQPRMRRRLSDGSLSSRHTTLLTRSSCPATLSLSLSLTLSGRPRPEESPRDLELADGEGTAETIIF
Assay: The nonspecific binding was determined with 1 μM AVP (Fluka 94836). All determinations were carried out as duplicate determinations. […] The liquid scintillation measurement took place in a Microbeta TriLux 12 (Wallac).

SMILES | Ki
CCOc1ncccc1C1(N2CC3(CN(N4CCN(C)CC4)C3)C2)C(=O)N(S(=O)(=O)c2ccc(OC)cn2)C2C=CC(C#N)=CC21 (racemic) | in the range around 5.5 nM
CCOc1ccc(OC)cc1C1(N2CC3(CN(N4CCN(C5COC5)CC4)C3)C2)C(=O)N(S(=O)(=O)c2ccc(OC)cn2)C2C=CC(C#N)=CC21 (racemic) | in the range around 5.5 nM
CCOc1ccc(OC)c(C2(N3CC4(CN(C5CCN(C)CC5)C4)C3)C(=O)N(S(=O)(=O)c3ccc(OC)cc3)C3C=CC(C#N)=CC32)c1 (stereo not given) | in the range around 5.5 nM
CCOc1ccc(OC)c(C2(N3CC4(CN(C5CCN(C6COC6)CC5)C4)C3)C(=O)N(S(=O)(=O)c3ccc(OC)cn3)C3C=CC(C#N)=CC32)c1 (racemic) | in the range around 5.5 nM
COc1ccc(S(=O)(=O)N2C(=O)C(c3cccnc3OC(C)(F)F)(N3CC4(CN(C5CCN(C)CC5)C4)C3)C3C=C(C#N)C=CC32)nc1 (racemic) | in the range around 5.5 nM
CCOc1ccc(OC)cc1[C@]1(N2CC3(CN(C4CCN(C)CC4)C3)C2)C(=O)N(S(=O)(=O)c2ccc(OC)nc2)C2C=CC(C#N)=CC21 (stereo not given in full) | in the range around 5.5 nM
CCOc1ccc(OC)c(C2(N3CC4(CN(C5CCN(C)CC5)C4)C3)C(=O)N(S(=O)(=O)c3ccc(OC)cn3)C3C=CC(C#N)=CC32)c1 (racemic; form 1) | in the range around 5.5 nM
COc1ccc(S(=O)(=O)N2C(=O)C(c3ccccc3OC)(N3CC4(CN(N5CCN(C)CC5)C4)C3)C3C=C(C#N)C=CC32)nc1 (racemic) | in the range around 5.5 nM
CCOc1ccc(OC)cc1[C@]1(N2CC3(CN(C4CCN(C)CC4)C3)C2)C(=O)N(S(=O)(=O)c2ccccn2)C2C=CC(C#N)=CC21 (stereo not given in full) | in the range around 5.5 nM

Continued, values first:

Ki | SMILES
in the range around 5.5 nM | COc1ccc(S(=O)(=O)N2C(=O)C(c3ccccc3OC)(N3CC4(CN(C5CCN(C)CC5)C4)C3)C3C=C(C#N)C=CC32)nc1 (racemic)
in the range around 5.5 nM | COc1ccc(S(=O)(=O)N2C(=O)C(c3cccnc3OC)(N3CC4(CN(C5CCN(C)CC5)C4)C3)C3C=C(C#N)C=CC32)nc1 (racemic; form 1)
in the range around 5.5 nM | CCOc1ccc(OC)c(C2(N3CC4(CN(C5CCN(C)CC5)C4)C3)C(=O)N(S(=O)(=O)c3ccc(OC)cn3)C3C=CC(C#N)=CC32)c1 (racemic; form 2)
in the range around 5.5 nM | COc1ccc(S(=O)(=O)N2C(=O)C(c3ccc(F)cc3OC)(N3CC4(CN(C5CCN(C)CC5)C4)C3)C3C=C(C#N)C=CC32)nc1 (stereo not given)
in the range around 5.5 nM | COc1ccc(S(=O)(=O)N2C(=O)C(c3cccnc3OC)(N3CC4(CN(C5CCN(C)CC5)C4)C3)C3C=C(C#N)C=CC32)nc1 (racemic; form 2)
in the range around 5.5 nM | COc1ccc(S(=O)(=O)N2C(=O)C(c3ccccc3OC)(N3CC4(CN(C5CCN(C6COC6)CC5)C4)C3)C3C=C(C#N)C=CC32)nc1 (single isomer, unassigned; (+))
